Data: patent EP0084597A1, “Triazole and imidazole derivatives and pharmaceutical preparations containing them” (BAYER AG, priority 1981, dated 1983)
In brackets after ≈: the same amount, converted by molar mass.

Experiments:
[1] = test system: Trichophyton mentagr.; assay: Antimycotic in-vitro activity, serial dilution test (MIC); format: cell-based, Trichophyton mentagrophytes; settings: Sabouraud medium, 20°C, 96 hours, inoculum 5 x 10^4 germs/ml; for MIC: Trichophyton, read-out: MHK-Werte in γ/ml Nährmedium, Trichophyton mentagr.
Procedure: (§1) Die in-vitro-Prüfungen wurden im Reihenverdünnungstest mit Keiminokula von durchschnittlich 5 x 10^4 Keimen/ml Substrat durchgeführt. Als Nährmedium dienten • a) für Dermatophyten und Schimmelpilze: Sabourand's milieu d'epreuve • b) für Hefen: Fleischextrakt-Traubenzucker-Bouillon.
(§2) Die Bebrütungstemperatur betrug 20°C, die Bebrütungsdauer lag bei 24 bis 96 Stunden bei Hefen und 96 Stunden bei Dermatophyten und Schimmelpilzen.

[2] = test system: Candida albicans; assay: as above; format: cell-based; settings: meat extract-glucose broth, 20°C, 24 to 96 hours, inoculum 5 x 10^4 germs/ml; for MIC: Candida albicans, read-out: MHK-Werte in γ/ml Nährmedium, Candida albicans
Procedure: as §1, §2

[3] = test system: Microsporum canis; assay: as above; format: cell-based; settings: Sabouraud medium, 20°C, inoculum 5 x 10^4 germs/ml; for MHK-Werte in γ/ml Nährmedium, Microsporum canis: 96 hours; for MIC: Microsporum canis, 96 h, read-out: MHK-Werte in γ/ml Nährmedium, Microsporum canis
Procedure: as §1, §2

[4] = test system: Torulopsis glabrata; assay: as above; format: cell-based; settings: meat extract-glucose broth, 20°C, 24 to 96 hours, inoculum 5 x 10^4 germs/ml; for MIC: Nakaseomyces glabratus, read-out: MHK-Werte in γ/ml Nährmedium, Torulopsis glabrata
Procedure: as §1, §2

[5] = test system: Aspergillus fumig.; assay: as above; format: cell-based, Aspergillus fumigatus; settings: Sabouraud medium, 20°C, inoculum 5 x 10^4 germs/ml; for MIC: Aspergillus, 96 h, read-out: MHK-Werte in γ/ml Nährmedium, Aspergillus fumig.
Procedure: as §1, §2

[6] = test system: Candida-Zellen; assay: Antimycotic in-vivo activity (oral) in mouse candidosis; parameters: species or system Mäuse vom Typ SPF-CF1; key: +++++: sehr gute Wirkung = 90 % Ueberlebende am 6.Tag p.i.; ++++: gute Wirkung = 80 % Ueberlebende am 6.Tag p.i.; +++: Wirkung = 60 % Ueberlebende am 6.Tag p.i.; ++: schwache Wirkung = 40 % Ueberlebende am 6.Tag p.i.; +: Spur Wirkung; k.W.: keine Wirkung
Procedure: Mäuse vom Typ SPF-CF1 wurden intravenös mit 1 - 2 x 10^6 logarithmisch wachsenden Candida-Zellen, die in physiologischer Kochsalzlösung suspendiert werden, infiziert. Eine Stunde vor und sieben Stunden nach der Infektion werden die Tiere mit jeweils 50 - 100 mg/kg Körpergewicht der Präparate oral behandelt.
Uhbehandelte Tiere starben 3 bis 6 Tage post infektionem. Die Ueberlebensrate am 6.Tag post infektionem betrug bei uhbehandelten Kontrolltieren etwa 5 %.
• +++++ = sehr gute Wirkung = 90 % Ueberlebende am 6.Tag p.i. • ++++ = gute Wirkung = 80 % Ueberlebende am 6.Tag p.i. • +++ = Wirkung = 60 % Ueberlebende am 6.Tag p.i. • ++ = schwache Wirkung = 40 % Ueberlebende am 6.Tag p.i. • + = Spur Wirkung = k.W. = keine Wirkung

[7] = test system: Dermatophyten und Schimmelpilze, Hefen; assay: Antimycotic in-vitro activity, serial dilution test, overall comparison with known compounds; format: cell-based; settings: compared with known compounds (A),(B),(C) and (D)
Procedure: as §1, §2

[8] = mice infected i.v. with 1 - 2 x 10^6 Candida cells, oral 50 - 100 mg/kg one hour before and seven hours after infection, survivors on day 6 p.i.
[9] = mouse candidosis, oral, compared with known compounds (A), (B), (C) and (D)

Structure (SMILES) | MIC [1] | MIC [2] | MHK-Werte in γ/ml Nährmedium, Microsporum canis [3] | MHK-Werte in γ/ml Nährmedium, Torulopsis glabrata [4] | MIC [5] | Wirkung [6, 8] | Wirkung [6, 9] | antimykotische Wirkung [7] | MHK-Werte in γ/ml Nährmedium, Trichophyton mentagr. [1] | MHK-Werte in γ/ml Nährmedium, Candida albicans [2] | MHK-Werte in γ/ml Nährmedium, Aspergillus fumig. ([5]; 96 hours) | MIC [3] | MIC [4]
CCCCC(C(O)c1ccc(Oc2ccc(Cl)cc2)cc1)n1cncn1 (single isomer, unassigned) [Beispiel 33] | < 1 µg/mL | < 1 µg/mL | 8 µg/mL | <1 µg/mL | 64 µg/mL (≈ 172 µM) | +++++ (sehr gute Wirkung = 90 % Ueberlebende am 6.Tag p.i.) | bessere Wirkung | bessere antimykotische Wirkung | – | – | – | – | –
CCCCC(C(O)c1ccc(Oc2ccc(Cl)cc2)cc1)n1cncn1 (single isomer, unassigned) [Beispiel 34] | – | – | 32 µg/mL | >64 µg/mL | – | – | – | bessere antimykotische Wirkung | <1 µg/mL | <1 µg/mL | 32 µg/mL | – | –
CC(C(=O)c1ccccc1)n1cncn1 (centres unmarked) [(A), reference compound] | > 64 µg/mL | > 64 µg/mL | – | – | – | k.W. | – | – | – | – | – | – | –
O=C(Cn1cncn1)c1ccc(-c2ccccc2)cc1 [(B), reference compound] | 4 µg/mL (≈ 15.2 µM) | > 64 µg/mL | – | – | > 64 µg/mL | k.W. | – | – | – | – | – | > 64 µg/mL | –
CC(C(O)c1ccc(Cl)cc1)n1cncn1 (centres unmarked) [(C), reference compound] | > 64 µg/mL | > 64 µg/mL | – | – | – | k.W. | – | – | – | – | – | – | –
OC(Cn1cncn1)c1ccc(-c2ccc(Cl)cc2)cc1 (centres unmarked) [(D), reference compound] | 4 µg/mL (≈ 13.3 µM) | > 64 µg/mL | – | – | > 64 µg/mL | k.W. | – | – | – | – | – | > 64 µg/mL | –
CCC(C(=O)c1ccc(Oc2ccc(Cl)cc2)cc1)n1cncn1 (centres unmarked) [Beispiel 7] | 4 µg/mL (≈ 11.7 µM) | 16 µg/mL (≈ 46.8 µM) | – | – | 32 µg/mL (≈ 93.6 µM) | – | – | bessere antimykotische Wirkung | – | – | – | 2 µg/mL (≈ 5.85 µM) | 64 µg/mL (≈ 187 µM)
CC(C(=O)c1ccc(Oc2ccc(Cl)cc2)cc1)n1cncn1 (centres unmarked) [Beispiel 9] | 2 µg/mL (≈ 6.1 µM) | 8 µg/mL (≈ 24.4 µM) | – | – | 8 µg/mL (≈ 24.4 µM) | +++ (Wirkung = 60 % Ueberlebende am 6.Tag p.i.) | bessere Wirkung | bessere antimykotische Wirkung | – | – | – | 4 µg/mL (≈ 12.2 µM) | 16 µg/mL (≈ 48.8 µM)
CC(C)C(C(=O)c1ccc(Oc2ccc(Cl)cc2)cc1)n1cncn1 (centres unmarked) [Beispiel 13] | 4 µg/mL (≈ 11.2 µM) | 64 µg/mL (≈ 180 µM) | – | – | 8 µg/mL (≈ 22.5 µM) | – | – | bessere antimykotische Wirkung | – | – | – | 8 µg/mL (≈ 22.5 µM) | –
CCCC(C(=O)c1ccc(Oc2ccc(Cl)cc2)cc1)n1ccnc1 (centres unmarked) [Beispiel 25] | < 1 µg/mL | < 1 µg/mL | – | – | < 1 µg/mL | – | – | bessere antimykotische Wirkung | – | – | – | 8 µg/mL (≈ 22.5 µM) | < 1 µg/mL
CC(C(=O)c1ccc(Oc2ccc(Cl)cc2)cc1)n1ccnc1 (centres unmarked) [Beispiel 26] | 8 µg/mL (≈ 24.5 µM) | 4 µg/mL (≈ 12.2 µM) | – | – | 16 µg/mL (≈ 49 µM) | + | bessere Wirkung | bessere antimykotische Wirkung | – | – | – | – | 16 µg/mL (≈ 49 µM)
CCCCC(C(=O)c1ccc(Oc2ccc(Cl)cc2)cc1)n1ccnc1 (centres unmarked) [Beispiel 27] | < 1 µg/mL | < 1 µg/mL | – | – | < 1 µg/mL | – | – | bessere antimykotische Wirkung | – | – | – | < 1 µg/mL | < 1 µg/mL
CC(C)C(C(=O)c1ccc(Oc2ccc(Cl)cc2)cc1)n1ccnc1 (centres unmarked) [Beispiel 28] | < 1 µg/mL | < 1 µg/mL | – | – | < 1 µg/mL | – | – | bessere antimykotische Wirkung | – | – | – | 2 µg/mL (≈ 5.64 µM) | 2 µg/mL (≈ 5.64 µM)
CCCCCCCC(C(O)c1ccc(Oc2ccc(Cl)cc2)cc1)n1cncn1 (centres unmarked) [Beispiel 36] | < 1 µg/mL | 4 µg/mL (≈ 9.66 µM) | – | – | 64 µg/mL (≈ 155 µM) | – | – | bessere antimykotische Wirkung | – | – | – | 32 µg/mL (≈ 77.3 µM) | 16 µg/mL (≈ 38.7 µM)
CC=CCC(C(O)c1ccc(Oc2ccc(Cl)cc2)cc1)n1cncn1 (centres unmarked) [Beispiel 37] | 4 µg/mL (≈ 10.8 µM) | < 1 µg/mL | – | – | 32 µg/mL (≈ 86.5 µM) | – | – | bessere antimykotische Wirkung | – | – | – | 4 µg/mL (≈ 10.8 µM) | 2 µg/mL (≈ 5.41 µM)
CCCC=CC(C(O)c1ccc(Oc2ccc(Cl)cc2)cc1)n1cncn1 (centres unmarked) [Beispiel 38] | < 1 µg/mL | 8 µg/mL (≈ 20.8 µM) | – | – | 32 µg/mL (≈ 83.4 µM) | – | – | bessere antimykotische Wirkung | – | – | – | 8 µg/mL (≈ 20.8 µM) | 64 µg/mL (≈ 167 µM)
COCCC(C(O)c1ccc(Oc2ccc(Cl)cc2)cc1)n1cncn1 (centres unmarked) [Beispiel 39] | 4 µg/mL (≈ 10.7 µM) | < 1 µg/mL | – | – | 16 µg/mL (≈ 42.8 µM) | – | – | bessere antimykotische Wirkung | – | – | – | 16 µg/mL (≈ 42.8 µM) | 4 µg/mL (≈ 10.7 µM)
CCCC(C(O)c1ccc(Oc2ccc(Cl)cc2Cl)cc1)n1cncn1 (centres unmarked) [Beispiel 40] | < 1 µg/mL | < 1 µg/mL | – | – | > 64 µg/mL | – | – | bessere antimykotische Wirkung | – | – | – | 8 µg/mL (≈ 20.4 µM) | < 1 µg/mL
CC(C(O)c1ccc(Oc2ccc(Cl)cc2Cl)cc1)n1cncn1 (centres unmarked) [Beispiel 41] | 4 µg/mL (≈ 11 µM) | < 1 µg/mL | – | – | 32 µg/mL (≈ 87.9 µM) | – | – | bessere antimykotische Wirkung | – | – | – | 16 µg/mL (≈ 43.9 µM) | 8 µg/mL (≈ 22 µM)
CC(n1cncn1)C(C)(O)c1ccc(Oc2ccc(Cl)cc2)cc1 (centres unmarked) [Beispiel 44] | < 1 µg/mL | < 1 µg/mL | – | – | > 64 µg/mL | – | – | bessere antimykotische Wirkung | – | – | – | 32 µg/mL (≈ 93.1 µM) | > 64 µg/mL
OC(Cn1cncn1)c1ccc(Oc2ccc(Cl)cc2Cl)cc1 (centres unmarked) [Beispiel 48] | < 1 µg/mL | < 1 µg/mL | – | – | 16 µg/mL (≈ 45.7 µM) | – | – | bessere antimykotische Wirkung | – | – | – | 4 µg/mL (≈ 11.4 µM) | 2 µg/mL (≈ 5.71 µM)
OC(Cn1cncn1)c1ccc(Oc2ccc(Cl)cc2)cc1 (centres unmarked) [Beispiel 49] | < 1 µg/mL | < 1 µg/mL | – | – | 16 µg/mL (≈ 50.7 µM) | – | – | bessere antimykotische Wirkung | – | – | – | 4 µg/mL (≈ 12.7 µM) | 16 µg/mL (≈ 50.7 µM)
CCCC(C(O)c1ccc(Oc2ccccc2)cc1)n1ccnc1 (centres unmarked) [Beispiel 68] | 4 µg/mL (≈ 12.4 µM) | < 1 µg/mL | – | – | 32 µg/mL (≈ 99.3 µM) | – | – | bessere antimykotische Wirkung | – | – | – | 16 µg/mL (≈ 49.6 µM) | 32 µg/mL (≈ 99.3 µM)
CCC(C(O)c1ccc(Oc2ccc(Cl)cc2)cc1)n1ccnc1 (centres unmarked) [Beispiel 70] | 2 µg/mL (≈ 5.83 µM) | < 1 µg/mL | – | – | 16 µg/mL (≈ 46.7 µM) | + | bessere Wirkung | bessere antimykotische Wirkung | – | – | – | 8 µg/mL (≈ 23.3 µM) | < 1 µg/mL
CC(C(O)c1ccc(Oc2ccc(Cl)cc2)cc1)n1ccnc1 (centres unmarked) [Beispiel 71] | 8 µg/mL (≈ 24.3 µM) | < 1 µg/mL | – | – | 16 µg/mL (≈ 48.7 µM) | +++ (Wirkung = 60 % Ueberlebende am 6.Tag p.i.) | bessere Wirkung | bessere antimykotische Wirkung | – | – | – | – | 2 µg/mL (≈ 6.08 µM)
CCCCC(C(O)c1ccc(Oc2ccc(Cl)cc2)cc1)n1ccnc1 (centres unmarked) [Beispiel 72] | < 1 µg/mL | < 1 µg/mL | – | – | 32 µg/mL (≈ 86.3 µM) | – | – | bessere antimykotische Wirkung | – | – | – | 8 µg/mL (≈ 21.6 µM) | 2 µg/mL (≈ 5.39 µM)
CC(C)C(C(O)c1ccc(Oc2ccc(Cl)cc2)cc1)n1ccnc1 (centres unmarked) [Beispiel 73] | 4 µg/mL (≈ 11.2 µM) | 4 µg/mL (≈ 11.2 µM) | – | – | 64 µg/mL (≈ 179 µM) | – | – | bessere antimykotische Wirkung | – | – | – | 16 µg/mL (≈ 44.8 µM) | 2 µg/mL (≈ 5.6 µM)
CCCC(C(O)c1ccc(Oc2ccc(Cl)cc2)cc1)n1ccnc1 (centres unmarked) [Beispiel 74] | < 1 µg/mL | < 1 µg/mL | – | – | 64 µg/mL (≈ 179 µM) | – | – | bessere antimykotische Wirkung | – | – | – | 8 µg/mL (≈ 22.4 µM) | < 1 µg/mL
